Experimental data reported in patent publication US12214058B2, “Imaging methods using deuterated compounds” (Genentech, Inc., priority 2014, dated 2025).
Values joined by “and” are separate entries in the source; they are usually repeats but may differ in a detail not shown here. Equal entries are not always repeated.

Key:
[1] = Dynamic microPET imaging in mice; type: in vivo, mice (C57BL/6)
Procedure: MicroPET Imaging The PET imaging was performed on Inveon PET/CT scanner (Siemens Medical Solutions USA Inc.). Animals anesthetized with sevoflurane were placed head-first, prone position on the scanner bed and dynamic 45 min scans were initiated. Approximately 3.7 MBq of ^18F-radiolabeled tracer in isotonic solution (100-130 μL) was administered as 60 second intravenous infusion via the tail vein. Body temperature was measured by a rectal probe and maintained with warm air flow at 37° C. Full-body iterative image reconstructions were obtained using maximum a posteriori algorithm (MAP, hyperparameter β 0.05) and corrected for signal attenuation using the tissue density obtained from CT. Projections were created with PMOD 3.305 (PMOD Technologies, Ltd., Zurich, Switzerland) and used to obtain quantitative activity levels in each organ of interest using region-of-interest analysis.

[2] = Microsomal stability assay, human liver microsomes; type: in vitro ADME; conditions: radiolabeled, 45 min incubation, n=3
Procedure: Microsomal stability assays The tracer [^18F][A]-d2 or [^18F][A] was dissolved in potassium phosphate (Kpi) buffer (100 mM) at concentration 500-600 μCi/mL. The non-radioactive 7 and 10 were dissolved in Kpi buffer at 10 μM concentration. The reaction vessel was charged with human or mouse liver microsome suspension (12.5 μL, 20 mg/mL) followed by Kpi buffer (388 μL, 10 mM), NADPH (50 μL, 10 mM) and incubated at 37° C. for 5-10 min. A solution of the radioactive [^18F][A]-d2 or [^18F][A] (50 μL, […]) or non-radioactive 7 or […] (50 μL, 10 μM) were added to the reaction vessel and the mixture was incubated at 37° C. […] The supernatant was analyzed by LCMS (System E).

tau = test: Human PET imaging with [18F][A]-d2 (SUVR); type: in vivo; conditions: for SUVR Frontal lobe / SUVR Occipital lobe / SUVR Parietal lobe / SUVR Temporal lobe / SUVR White matter: cerebellum gray as reference
Excerpt: A total of 5 subjects, 3 Alzheimer's disease (AD) patients and 2 healthy volunteers (HV) was used in this study. This study protocol required each subject to complete the following components: screening evaluation, MRI, [^18F]florbetapir (AD subjects only) and [^18F][A]-d2. The screening procedures included neuropsychological assessment, vital signs, ECG, physical exam, MRI, and [^18F]florbetapir PET imaging to confirm presence of amyloid deposition in patients clinically diagnosed with probable AD. In addition, each subject completed clinical assessments and clinical safety labs to ensure the subject was medically stable to complete the study protocol. The screening procedures occurred within 30 days prior to [^18F][A]-d2 imaging. Eligible subjects participated in a single [^18F][A]-d2 imaging session. The distribution of tau binding was assessed in each of the subject groups (AD and HV) to evaluate for binding to tau. For each AD subject, the distribution of Aβ and tau was compared. Tau binding in brain was assessed with PET using [^18F][A]-d2. Radioligand binding was compared in brains of HV subjects who should have minimal to negligible concentrations of tau compared to patients with AD, who are expected to have moderate to high densities of tau.
All subjects received a single injection of [^18F][A]-d2. Subjects received a bolus intravenous injection of no more than 370 MBq (˜10 mCi).
Images were acquired using a HR+ PET camera in three-dimensional mode and were reconstructed using an iterative algorithm including scatter and measured attenuation correction (^68Ge source). Dynamic images were acquired upon injection (˜370 MBq). The scanning protocol consisted of 2 scanning segments in the two healthy control (HC) subjects, Subjects 1 & 2 (0-120 min and ˜150-180 min) and of 3 segments in the suspected AD patient, Subject 3 (0-60 min, 93-123 min and 147-177 min).
The MR volumetric image, a summed image of the first 15 min after tracer administration of [^18F][A]-d2 were coregistered using Statistical Parametic Mapping SPM8 (software provided by members and collaborators of the Wellcome Trust Centre for Neuroimaging). Alignment of the additional PET segments to the first PET segment was performed using in-house developed analysis software written in Matlab® (version 8 Release 2014a). Then, using the MRI scan for anatomical delineation, irregular regions of interest (ROI) were drawn for each subject in the frontal, parietal, occipital, and temporal lobes, cerebellum gray, and white-matter (centrum semi-ovale) using MIM® software.
[^18F][A]-d2 tissue time activity curves (TAC) were expressed in SUV (Standardized Uptake Value) using each subject's weight and the corresponding tracer injected dose: TAC(SUV)=TAC(Bq/cm^3)×1000 cm^3/kg×Subject's weight(kg)/Injected dose(Bq). TAC creation and all subsequent analyses were performed using in-house developed analysis software written in Matlab®.
The ratio to cerebellum gray or standardized uptake value ratio (SUVR) was calculated. […] A clear separation of the curves is observed as early as 30 min post injection. The SUVR curves in the two healthy controls remained relatively constant soon after injection. The SUVR in the AD subject reached a plateau in the 90-120 min interval.

[3] = 40-60 min interval, Subject 1 (HC)
[4] = 40-60 min interval, Subject 2 (HC)
[5] = 40-60 min interval, Subject 3 (AD)
[6] = 90-120 min interval, Subject 1 (HC)
[7] = 90-120 min interval, Subject 2 (HC)
[8] = 90-120 min interval, Subject 3 (AD)

[2H]C([2H])([18F])CC1CCN(c2ccn3c(n2)nc2ccccc23)CC1 [[^18F][A]-d2, 1,1-dideutero-2-(1-(benzo[4,5]imidazo[1,2-a]pyrimidine-2-yl)piperidin-4-yl)-1-[^18F]fluoroethane]
reduction in bone uptake versus [18F][A] ([1]; in vivo PET): ~54% | uptake in liver and kidneys, comparison of the two tracers ([1]; n=6): indistinguishable | bone uptake ([1]; n=6, 30-45 min post tracer injection): 14.3±1.7 % ID/g | peak uptake in brain ([1]; n=6, i.v., dynamic PET): 7.4±2.2 % ID/g | fraction attributed to parent compound [2]: 91.7±0.21% and 67.1±6.3% | SUVR Frontal lobe (tau; [3]): 1.08 | SUVR Occipital lobe (tau; [3]): 1.15 | SUVR Parietal lobe (tau; [3]): 1.09 | SUVR Temporal lobe (tau; [3]): 1.14 | SUVR White matter (tau; [3]): 0.85 | SUVR Frontal lobe (tau; [4]): 1.12 | SUVR Occipital lobe (tau; [4]): 1.19 | SUVR Parietal lobe (tau; [4]): 1.13 | SUVR Temporal lobe (tau; [4]): 1.18 | SUVR White matter (tau; [4]): 0.80 | SUVR Frontal lobe (tau; [5]): 1.16 | SUVR Occipital lobe (tau; [5]): 1.60 | SUVR Parietal lobe (tau; [5]): 1.35 | SUVR Temporal lobe (tau; [5]): 1.82 | SUVR White matter (tau; [5]): 0.88 | SUVR Frontal lobe (tau; [6]): 1.07 | SUVR Occipital lobe (tau; [6]): 1.19 | SUVR Parietal lobe (tau; [6]): 1.07 | SUVR Temporal lobe (tau; [6]): 1.13 | SUVR White matter (tau; [6]): 0.76 | SUVR Frontal lobe (tau; [7]): 1.17 | SUVR Occipital lobe (tau; [7]): 1.21 | SUVR Parietal lobe (tau; [7]): 1.07 | SUVR Temporal lobe (tau; [7]): 1.18 | SUVR White matter (tau; [7]): 0.66 | SUVR Frontal lobe (tau; [8]): 1.25 | SUVR Occipital lobe (tau; [8]): 1.87 | SUVR Parietal lobe (tau; [8]): 1.52 | SUVR Temporal lobe (tau; [8]): 2.25 | SUVR White matter (tau; [8]): 0.81 | radioactivity uptake in bone tissue (tau; Subjects 1-3, human PET images): no radioactivity uptake in bone tissue
